Target: Carbonic anhydrase 9 (Homo sapiens, UniProt Q16790)
Assay: Inhibition of human transmembrane carbonic anhydrase 9 preincubated for 15 mins by stopped flow CO2 hydration assay

Row | SMILES | Ki
1 | Nc1nc(N)nc(Nc2ccc(S(N)(=O)=O)cc2)n1 | 0.0024 µM
2 | NCCCNc1nc(Cl)nc(Nc2ccc(S(N)(=O)=O)cc2)n1 | 0.0214 µM
3 | CC(C)(C)Nc1nc(Nc2ccc(S(N)(=O)=O)cc2)nc(NC(C)(C)C)n1 | 0.0193 µM
4 | COc1ccc(Nc2ccc(S(N)(=O)=O)cc2)nn1 | 0.0085 µM
5 | Nc1cccnc1Nc1ccc(S(N)(=O)=O)cc1 | 0.0107 µM

The remaining compounds from weak to strong by Ki, led by results:

Row | Ki | SMILES
6 | 0.0341 µM | NS(=O)(=O)c1ccc(Nc2nc(N3CCOCC3)nc(N3CCOCC3)n2)cc1
7 | 0.0212 µM | NS(=O)(=O)c1ccc(Nc2nc(Cl)nc(Nc3ccc(F)c(Cl)c3)n2)cc1
8 | 0.0183 µM | NCCCNc1nc(NCCCN)nc(Nc2ccc(S(N)(=O)=O)cc2)n1
9 | 0.0102 µM | Cc1cccc(Nc2nc(Nc3ccc(S(N)(=O)=O)cc3)nc(N3CCOCC3)n2)c1
10 | 0.0059 µM | NS(=O)(=O)c1ccc(Nc2nc(Cl)nc(Nc3ccccc3)n2)cc1
11 | 0.0059 µM | CN(CCO)c1nc(Nc2ccc(S(N)(=O)=O)cc2)nc(N(C)CCO)n1
12 | 0.0012 µM | CN(CCO)c1nc(Cl)nc(Nc2ccc(S(N)(=O)=O)cc2)n1

Source: ChEMBL document CHEMBL3120137, “Substituted benzene sulfonamides incorporating 1,3,5-triazinyl moieties potently inhibit human carbonic anhydrases II, IX and XII” (Bioorg Med Chem Lett, 2014)
